Measured values: US8551984B2, “Aminopyrimidines as SYK inhibitors” (Merck Sharp & Dohme Corp., priority 2009, dated 2013)

Biological target: recombinant human SYK (GST-hSYK fusion protein) (Homo sapiens, UniProt P43405)
Assay: biochemical
[1] = rhSYK Activity (IC50), recombinant human GST-SYK 5 pM, ATP 25 μM, biotinylated substrate peptide 250 nM, HTRF, 10-dose titration
[2] = rhSYK Activity, Table 113D, upper part

Description: Homogeneous Time-Resolved Fluorescence (HTRF) Assay for the Recombinant Human SYK Enzyme:

In the case of `Cc1cc(Nc2nccc(C(F)(F)F)n2)cc(-c2cnc(CNc3cncnc3)s2)c1` [Example 88A-1], the IC50 [1] is reported as < 100 nM.
With `Cc1cc(Nc2ncc(Cl)c(C)n2)cc(-c2cnc([C@]3(O)CC[C@@H](O)CC3)s2)c1` [8A-2] the IC50 (rhSYK Activity, Table 8A) was < 100 nM.
Molecule `Cc1cc(Nc2nccc(OC(C)(C)C(=O)OC(C)(C)C)n2)cc(-c2cnc(C3(O)CCC3)s2)c1` [Example 94A-25, tert-butyl 2-{[2-({3-[2-(1-hydroxycyclobutyl)-1,3-thiazol-5-yl]-5-methylphenyl}amino)-pyrimidin-4-yl]oxy}-2-methylpropanoate] has an IC50 [1] of 100 to 1000 nM.
`CCC(CO)NC(=O)c1ncc(-c2cc(C)cc(Nc3nccc(C(F)(F)F)n3)c2)s1` (stereo not drawn) [Example 87A-10] was tested, and the IC50 [1] was < 100 nM.
For `CCc1cnc(Nc2cc(C)cc(-c3cnc(C4(O)CCC4)s3)c2)nc1` [Example 100A-6], the IC50 [1] was 100 to 1000 nM.
With `Cc1cc(Nc2nccc(C(F)(F)F)n2)cc(-c2cnc(CNCC3CCC(=O)N3)s2)c1` (stereo not drawn) [Example 88, 5-[({[5-(3-methyl-5-{[4-(trifluoromethyl)pyrimidin-2-yl]amino}phenyl)-1,3-thiazol-2-yl]-methyl}amino)methyl]pyrrolidin-2-one] the IC50 [1] was < 100 nM.
`Cc1cc(Nc2nccc(C(F)(F)F)n2)cc(-c2cnc(C(C)(O)c3c(C)nn(CCC(=O)O)c3C)s2)c1` (stereo not drawn) [Example 33D-19] was tested, and the IC50 (rhSYK Activity, Table 33D) was < 100 nM.
`Cc1cc(Nc2ncc(Cl)c(C)n2)cc(-c2cnc([C@@]3(O)CC[C@H](C(=O)O)C(C)(C)C3)s2)c1` [116A-27] was tested, and the IC50 (rhSYK Activity, Table 116A) was < 100 nM.
With `Cc1cc(Nc2nccc(C(F)(F)F)n2)cc(-c2cnc(CNCC(N)=O)s2)c1` [Example 88A-22] the IC50 [1] was < 100 nM.
With `Cc1cc(Nc2nccc(C(F)(F)F)n2)cc(-c2cnc([C@]3(O)CC[C@@H](NC(=O)c4ccc(O)c(F)c4)CC3)s2)c1` [Example 54E-36] the IC50 (rhSYK Activity, Table 54E) was < 100 nM.
`Cc1cc(Nc2nccc(C(F)(F)F)n2)cc(-c2cnc(C3(O)CCCN(S(N)(=O)=O)CC3)s2)c1` (stereo not drawn) [Example 54D-115] was tested, and the IC50 (rhSYK Activity, Table 54D) was < 100 nM.
In the case of `Cc1cc(Nc2nccc(C)n2)cc(-c2cnc(C3(O)CCC3)s2)c1` [Example 100A-2], the IC50 [1] is reported as < 100 nM.
In the case of `Cc1cc(Nc2ncccn2)cc(-c2cnc(C3(N)CCC3)s2)c1` [Example 62-1], the IC50 (rhSYK Activity, Table 62) is reported as < 100 nM.
In the case of `COc1ccnc(Nc2cc(C)cc(-c3cnc(CS(N)(=O)=O)s3)c2)n1` [Example 75-2], the IC50 (rhSYK Activity, table after Example 75) is reported as < 100 nM.
In the case of `Cc1cc(Nc2nccc(C(F)(F)F)n2)cc(-c2cnc(C(=O)N3CC(O)CC3C(=O)O)s2)c1` (stereo not drawn) [Example 87B-20], the IC50 [1] is reported as < 100 nM.
`Cc1cc(Nc2ncccn2)cc(-c2cnc(C(C)(O)C(F)(F)F)s2)c1` (stereo not drawn) [Example 101, 1,1,1-trifluoro-2-{5-[3-methyl-5-(pyrimidin-2-ylamino)phenyl]-1,3-thiazol-2-yl}propan-2-ol] was tested, and the IC50 [1] was 100 to 1000 nM.
With `CCOC(=O)[C@H]1CC[C@@](O)(c2ncc(-c3cccc(Nc4nccc(C(F)(F)F)n4)c3)s2)CC1` [Example 33A-26] the IC50 (rhSYK Activity, Table 33-A) was 100 to 1000 nM.
With `Cc1cc(Nc2nccc(C(F)(F)F)n2)cc(-c2cnc(C3(C#N)CCCCC3)s2)c1` [Example 128, 1-[5-(3-methyl-5-{[4-(trifluoromethyl)pyrimidin-2-yl]amino}phenyl)-1,3-thiazol-2-yl]cyclohexanecarbonitrile] the IC50 [1] was 100 to 1000 nM.
In the case of `Cc1cc(Nc2nccc(C)n2)cc(-c2cnc([C@]3(O)CC[C@@H](C(=O)O)CC3)s2)c1` [Example 33A-30], the IC50 (rhSYK Activity, Table 33-A) is reported as < 100 nM.
`Cc1cc(Nc2nccc(C(F)(F)F)n2)cc(-c2cnc(C3(O)CCCN(S(=O)(=O)NC(=O)OC(C)(C)C)CC3)s2)c1` (stereo not drawn) [Example 54D-114] was tested, and the IC50 (rhSYK Activity, Table 54D) was < 100 nM.
For `Cc1cc(Nc2nccc(C(F)(F)F)n2)cc(-c2cnc(C3(O)CCCN(C(=O)CC(N)=O)CC3)s2)c1` (stereo not drawn) [Example 54D-22], the IC50 (rhSYK Activity, Table 54D) was < 100 nM.
With `CC(O)c1ncc(-c2cccc(Nc3nccc(OC4CCNCC4)n3)c2)s1` (stereo not drawn) [Example 94B-10] the IC50 [1] was < 100 nM.
`COC(=O)C1CCC(O)(c2ncc(-c3cc(C)cc(Nc4nccc(C)n4)c3)s2)CC1C` (stereo not drawn) [Example 113A-12] showed an IC50 (rhSYK Activity, Table 113A) of 100 to 1000 nM.
For `Cc1cc(Nc2nccc(C(F)(F)F)n2)cc(-c2cnc(CCC(=O)N3CCOCC3)s2)c1` [Example 79-5], the IC50 [1] was < 100 nM.
`FC(F)(F)c1ccnc(Nc2cccc(-c3cnc(C4CCCO4)s3)c2)n1` (stereo not drawn) [Example 21-1] was tested, and the IC50 (rhSYK Activity, Table 21) was < 100 nM.
In the case of `Cc1cc(Nc2nccc(C(F)(F)F)n2)cc(-c2cnc(C3(O)CCN(S(=O)(=O)C(F)(F)F)CC3)s2)c1` [Example 54A-2], the IC50 (RHSYK Activity, Table 54A) is reported as < 100 nM.
Work on `Cc1cc(Nc2ncc(F)cn2)cc(-c2cnc(C3(O)CCC(C(=O)O)C(C)(C)C3)s2)c1` (stereo not drawn) [Example 33A-45] yielded an IC50 (rhSYK Activity, Table 33-A) of 100 to 1000 nM.
`Cc1cc(Nc2nccc(C(F)(F)F)n2)cc(-c2cnc(C3(NC(N)=O)CCNC(=O)CC3)s2)c1` (stereo not drawn) [Example 64-9] was tested, and the IC50 (rhSYK Activity, Table 64, first part) was < 100 nM.
With `Cc1cc(Nc2nccc(C(F)(F)F)n2)cc(-c2cnc(CN3CCC(C)(O)CC3)s2)c1` [Example 88B-5] the IC50 [1] was < 100 nM.
With `Cc1cc(Nc2nccc(OC3CCOCC3)n2)cc(-c2cnc(C3(O)CCC3)s2)c1` [Example 94A-17] the IC50 [1] was < 100 nM.
Molecule `Cc1cc(Nc2nccc(C(F)(F)F)n2)cc(-c2cnc(C(C)(C)C(=O)OC(C)(C)C)s2)c1` [Example 81, tert-Butyl 2-methyl-2-[5-(3-methyl-5-{[4-(trifluoromethyl)pyrimidin-2-yl]amino}phenyl)-1,3-thiazol-2-yl]propanoate] has an IC50 [1] of 100 to 1000 nM.
In the case of `COc1nc(Nc2cc(C)cc(-c3cnc(C4(NS(N)(=O)=O)COC4)s3)c2)ncc1Cl` [Example 63-2], the IC50 (rhSYK Activity, Table 63) is reported as < 100 nM.
With `C=C(c1ccc(C(=O)O)cc1)c1ncc(-c2cc(C)cc(Nc3nccc(C(F)(F)F)n3)c2)s1` [Example 113D-1] the IC50 [2] was < 100 nM.
For `Cc1cc(Nc2nccc(C(F)(F)F)n2)cc(-c2cnc([C@@H](O)[C@H](O)c3ccc(C(=O)O)cc3)s2)c1` (relative stereo) [Example 146, 4-{(Cis)-1,2-dihydroxy-2-[5-(3-methyl-5-{[4-(trifluoromethyl)pyrimidin-2-yl]amino}phenyl)-1,3-thiazol-2-yl]ethyl}benzoic acid], the IC50 [1] was < 100 nM.
In the case of `Cc1cc(Nc2nccc(C(F)(F)F)n2)cc(-c2cnc(C3(O)CCCN(C(=O)c4nnnn4C)CC3)s2)c1` (single isomer, unassigned) [Example 54D-57], the IC50 (rhSYK Activity, Table 54D) is reported as < 100 nM.
In the case of `Cc1cc(Nc2nccc(C(F)(F)F)n2)cc(-c2cnc(-c3cnn4c3CCCC4)s2)c1` [Example 114-1], the IC50 [1] is reported as < 100 nM.
In the case of `COC(=O)C1CCC(O)(c2ncc(-c3cccc(Nc4nccc(C(F)(F)F)n4)c3)s2)CC1(C)C` (stereo not drawn) [Example 33A-65], the IC50 (rhSYK Activity, Table 33-A) is reported as 100 to 1000 nM.
In the case of `Cc1cc(Nc2nccc(C(F)(F)F)n2)cc(-c2cnc(C3(O)CCN(C(=O)C(O)CO)C3)s2)c1` (stereo not drawn) [54B-28], the IC50 (rhSYK Activity, Table 54B) is reported as < 100 nM.
For `Cc1cc(Nc2nccc(C(C)C)n2)cc(-c2cnc(C3(O)CCCN(C(=O)C(C)(CO)CO)CC3)s2)c1` (stereo not drawn) [Example 54D-31], the IC50 (rhSYK Activity, Table 54D) was < 100 nM.
With `Cc1cc(Nc2nccc(C(F)(F)F)n2)cc(-c2cnc(CN3CCN(S(C)(=O)=O)CC3)s2)c1` [Example 88B-9] the IC50 [1] was < 100 nM.
In the case of `CS(=O)(=O)N1CCN(c2cc(Nc3nccc(C(F)(F)F)n3)cc(-c3cnc(C4(O)CCC4)s3)c2)CC1` [24-4], the IC50 (rhSYK Activity, Table 24) is reported as < 100 nM.
For `NC(=O)Nc1cc(Nc2nccc(OC3CCNCC3)n2)cc(-c2cnc(C3(O)CCC3)s2)c1` [Example 109-11], the IC50 (rhSYK Activity, Table 109) was < 100 nM.
For `CCOP(=O)(OCC)[C@]1(O)CC[C@](O)(c2ncc(-c3cc(C)cc(Nc4nccc(C(F)(F)F)n4)c3)s2)CC1` [155(B), Diethyl{trans-1,4-dihydroxy-4-[5-(3-methyl-5-{[4-(trifluoromethyl)pyrimidin-2-yl]amino}phenyl)-1,3-thiazol-2-yl]cyclohexyl}phosphonate], the IC50 [1] was < 100 nM.
`Cc1cc(Nc2nccc(C(F)(F)F)n2)cc(-c2cnc(C3(O)CCCN(CC(=O)O)CC3)s2)c1` (stereo not drawn) [{4-hydroxy-4-[5-(3-methyl-5-{[4-(trifluoromethyl)pyrimidin-2-yl]amino}phenyl)-1,3-thiazol-2-yl]azepan-1-yl)acetic acid] was tested, and the IC50 (Syk IC50, HTRF, recombinant human GST-SYK) was 216 nM.
`Cc1cc(Nc2nccc(C(F)(F)F)n2)cc(-c2cnc(C(F)(F)c3ccc(C(=O)O)cc3)s2)c1` [Example 113D-7] was tested, and the IC50 [2] was < 100 nM.
`Cc1cc(Nc2nccc(N3CCCC(=O)NC3)n2)cc(-c2cnc(C3(O)CCC3)s2)c1` [Example 94C-1] was tested, and the IC50 [1] was < 100 nM.
For `Cc1cc(Nc2ncc(F)c(OC3CCOC3)n2)cc(-c2cnc(C3(O)CCC3)s2)c1` (stereo not drawn) [Example 94A-6], the IC50 [1] was 100 to 1000 nM.
For `Cc1cc(Nc2nccc(C(F)(F)F)n2)cc(-c2cnc(C3(O)CCC/C(=N\O)C3(C)C)s2)c1` (stereo not drawn) [Example 156, (3E)-3-(Hydroxyimino)-2,2-dimethyl-1-[5-(3-methyl-5-{[4-(trifluoromethyl)pyrimidin-2-yl]amino}phenyl)-1,3-thiazol-2-yl]cyclohexanol], the IC50 [1] was < 100 nM.
In the case of `Cc1cc(Nc2nccc(C(F)(F)F)n2)cc(-c2cnc(C3(O)CCN(C(=O)c4cccnc4)CC3)s2)c1` [Example 54A-8], the IC50 (RHSYK Activity, Table 54A) is reported as < 100 nM.
With `COC(=O)C1CC=C(c2ncc(-c3cc(C)cc(Nc4nccc(C(F)(F)F)n4)c3)s2)CC1(C)C` (stereo not drawn) [Example 36A-13] the IC50 (rhSYK Activity, Table 36A) was 100 to 1000 nM.
With `Cc1cc(Nc2nccc(C(F)(F)F)n2)cc(-c2cnc(C3(O)CCCN(C(=O)c4cccc(O)n4)CC3)s2)c1` (stereo not drawn) [Example 54D-86] the IC50 (rhSYK Activity, Table 54D) was < 100 nM.
`Cc1cc(Nc2nccc(C(C)(C)C)n2)cc(-c2cnc(C3(O)CCC(C(=O)OC(C)(C)C)CC3)s2)c1` (stereo not drawn) [116A-12] gave an IC50 (rhSYK Activity, Table 116A) of 100 to 1000 nM.
In the case of `Cc1cc(Nc2nccc(C(F)(F)F)n2)cc(-c2cnc(CN3CCOC3=O)s2)c1` [Example 92-1], the IC50 [1] is reported as < 100 nM.
For `O=C(O)[C@H]1CC[C@@](O)(c2ncc(-c3cc(Cl)cc(Nc4nccc(C(F)(F)F)n4)c3)s2)CC1` [Example 33A-22], the IC50 (rhSYK Activity, Table 33-A) was < 100 nM.
In the case of `Cc1cc(Nc2nccc(C(F)(F)F)n2)cc(-c2cnc(C3(O)CCCN(C(=O)Cn4ccnc4)CC3)s2)c1` (stereo not drawn) [Example 54D-46], the IC50 (rhSYK Activity, Table 54D) is reported as < 100 nM.
In the case of `Cc1cc(Nc2nccc(OCCC3CCOCC3)n2)cc(-c2cnc(C3(O)CCC3)s2)c1` [Example 94A-5], the IC50 [1] is reported as < 100 nM.
For `Cc1cc(Nc2nccc(C(F)(F)F)n2)cc(-c2cnc(C3(O)CCCN(C(=O)C4CNC(=O)N4)CC3)s2)c1` (stereo not drawn) [Example 54D-64], the IC50 (rhSYK Activity, Table 54D) was < 100 nM.
